EC50 data for 31 compounds are collected here from patent US9060971B2, “Combination pharmaceutical agents as inhibitors of HCV replication” (Enanta Pharmaceuticals, Inc., priority 2010, dated 2015).

The assay has as its system HCV 1b genotype replicon. Kind of assay: HCV replicon drug screening assay (quantitative RT-PCR or luciferase), genotype 1b. Format: cell-based. As to conditions: Hepatitis C virus; HCV 1b genotype replicon; quantitative RT-PCR or luciferase assay; read-out: Genotype-1b replicon EC50 Range. The text has this:
HCV replicon cell lines (kindly provided by R. Bartenschlager) isolated from colonies as described by Lohman et. al. (Lohman et al. (1999) Science 285: 110-113, expressly incorporated by reference in its entirety) and used for all experiments. The HCV replicon has the nucleic acid sequence set forth in EMBL Accession No.: AJ242651, the coding sequence of which is from nucleotides 1801 to 8406.
The coding sequence of the published HCV replicon was synthesized and subsequently assembled in a modified plasmid pBR322 (Promega, Madison, Wis.) using standard molecular biology techniques. One replicon cell line (“SGR 11-7”) stably expresses HCV replicon RNA which consists of (i) the HCV 5′UTR fused to the first 12 amino acids of the capsid protein, (ii) the neomycin phosphotransferase gene (neo), (iii) the IRES from encephalomyocarditis virus (EMCV), and (iv) HCV NS2 to NS5B genes and the HCV 3′UTR. Another replicon cell line (“Huh-luc/neo-ET”) described by Vrolijk et. al. (Vrolijk et. al. (2003) Journal of Virological Methods 110:201-209, expressly incorporated by reference in its entirety) stably expresses HCV replicon RNA which consists of (i) the HCV 5′UTR fused to the first 12 amino acids of the capsid protein, (ii) the firefly luciferase reporter gene, (iii) the ubiquitin gene, (iv) the neomycin phosphotransferase gene (neo), (v) the IRES from encephalomyocarditis virus (EMCV), and (vi) HCV NS3 to NS5B genes that harbor cell culture adaptive mutations (E1202G, T12801, K1846T) and the HCV 3′UTR.
These cell lines are maintained at 37° C., 5% CO2, 100% relative humidity in DMEM (Cat#11965-084, Invitrogen), with 10% fetal calf serum (“FCS”, Invitrogen), 1% non-essential amino acids (Invitrogen), 1% of Glutamax (Invitrogen), 1% of 100× penicillin/streptomycin (Cat#15140-122, Invitrogen) and Geneticin (Cat#10131-027, Invitrogen) at 0.75 mg/ml or 0.5 mg/ml for 11-7 and Huh-luc/neo-ET cells, respectively.
EC50 values of single agent compounds and combinations were determined by HCV RNA detection using quantitative RT-PCR, according to the manufacturer's instructions, with a TAQMAN® One-Step RT-PCR Master Mix Reagents Kit (Cat#AB 4309169, Applied Biosystems) on an ABI Model 7500 thermocycler. The TaqMan primers to use for detecting and quantifying HCV RNA are 5′-GCTGCGGCCTGTCGAGCT-3′ (SEQ ID NO: 1), 5′-CAAGGTCGTCTCCGCATAC-3′ (SEQ ID NO: 2) and the probe 5′-FAM-[…]-BHQ-3′ (SEQ ID NO: 3) obtained from Integrated DNA Technologies. HCV RNA is normalized to GAPDH RNA levels in drug-treated cells, which is detected and quantified using the Human GAPDH Endogenous Control Mix (Applied Biosystems, AB 4310884E). Total cellular RNA is purified from 96-well plates using the RNAqueous 96 kit (Ambion, Cat#AM1812). Chemical agent cytotoxicity was evaluated using an MTS assay according to the manufacturer's directions (Promega).
The compounds described herein can be effective against the HCV 1b genotype. It should also be understood that the compounds can inhibit multiple genotypes of HCV. In one embodiment, compounds of Formula (I) are active against the 1a, 1b, 2a, 2b, 3a, 4a, and 5a genotypes. […] The EC50 ranges were classified into the following groups: A>10 nM; B 1-10 nM; C<1 nM. The potential cytotoxicities of each agent were analyzed in parallel by MTS assay and are greater than 3 uM for all agents.
For orientation: A replicon is a self-replicating genome or part of one, used to study replication in cells.
In general, EC50 refers to the concentration needed to bring the measured effect to its halfway point. As to `COC(=O)N[C@H](C(=O)N1CCC[C@H]1c1nc2cc(-c3ccc4cc(-c5c[nH]c([C@@H]6CCCN6C(=O)[C@@H](NC(=O)OC)[C@@H](C)OC)n5)ccc4c3)ccc2[nH]1)C(C)C` [Compound 52], the concentration for a half-maximal effect (EC50) is < 1 nM.

In the case of `CC(C)[C@H](Nc1ncccn1)C(=O)N1CCC[C@H]1c1nc2cc(-c3ccc(-c4ccc5[nH]c([C@@H]6CCCN6C(=O)[C@@H](Nc6ncccn6)C(C)C)nc5c4)cc3)ccc2[nH]1` [Compound 19], the EC50 was < 1 nM.

Consider `COC(=O)N[C@@H](C(=O)N1CCC[C@H]1c1nc2cc(NC(=O)Nc3ccc4nc([C@@H]5CCCN5C(=O)[C@H](NC(=O)OC)c5ccccc5)[nH]c4c3)ccc2[nH]1)c1ccccc1` [Compound 32], for which the concentration for a half-maximal effect (EC50) is > 10 nM.

On to `COC(=O)N[C@H](C(=O)N1CCC[C@H]1c1nc(-c2ccc(C#Cc3cc(F)c4[nH]c([C@@H]5CCCN5C(=O)[C@@H](NC(=O)OC)C(C)C)nc4c3)cc2)c[nH]1)C(C)C` [Compound 64], for which the concentration for a half-maximal effect (EC50) is < 1 nM.

As to `COC(=O)N[C@H](C(=O)N1CCC[C@H]1c1nc(-c2ccc3cc(-c4ccc5[nH]c([C@@H]6[C@H]7CC[C@H](C7)N6C(=O)[C@@H](NC(=O)OC)C(C)C)nc5c4)ccc3c2)c[nH]1)C(C)C` [Compound 129], the EC50 is < 1 nM.

Take `COC(=O)N[C@H](C(=O)N1CCC[C@H]1c1nc(-c2ccc(C#Cc3ccc4[nH]c([C@@H]5CCCN5C(=O)[C@@H](NC(C)=O)C(C)C)nc4c3)cc2)c[nH]1)C(C)C` [Compound 81]: the EC50 was < 1 nM.

Take `COC(=O)N[C@H](C(=O)N1CC2(CC2)C[C@H]1c1nc(-c2ccc(C#Cc3ccc4[nH]c([C@@H]5CCCN5C(=O)[C@@H](NC(=O)OC)C(C)C)nc4c3)cc2)c[nH]1)C(C)C` [Compound 94]: the EC50 was < 1 nM.

Take `COC(=O)N[C@H](C(=O)N1CCC[C@H]1c1nc(-c2ccc(C#Cc3ccc4[nH]c([C@@H]5CCCN5C(=O)[C@H](NC(=O)OC)c5ccccc5)nc4c3)cc2)c[nH]1)C(C)C` [Compound 79]: the half-maximal effective concentration (EC50) is < 1 nM.

`CC[C@H](C)[C@H](NC(=O)OC)C(=O)N1CCC[C@H]1c1nc2cc(-c3ccc4cc(-c5c[nH]c([C@@H]6CCCN6C(=O)[C@@H](NC(=O)OC)[C@@H](C)OC)n5)ccc4c3)ccc2[nH]1` [Compound 54]: the EC50 was < 1 nM.

In the case of `COC(=O)N[C@H](C(=O)N1CCC[C@H]1c1nc(-c2ccc(CCCc3ccc4nc([C@@H]5CCCN5C(=O)[C@@H](NC(=O)OC)C(C)C)[nH]c4c3)s2)c[nH]1)C(C)C` [Compound 47], the EC50 is < 1 nM.

Take `COC(=O)N[C@@H](C(=O)N1CCC[C@H]1c1cc(-c2ccc(CCc3ccc4[nH]c([C@@H]5CCCN5C(=O)[C@H](NC(=O)OC)c5ccccc5)nc4c3)cc2)n[nH]1)c1ccccc1` [Compound 42]: the concentration giving a half-maximal response (EC50) was < 1 nM.

In the case of `C=C1C[C@@H](c2nc(-c3ccc(C#Cc4ccc5[nH]c([C@@H]6CC(=C)CN6C(=O)[C@@H](NC(=O)OC)C(C)C)nc5c4)cc3)c[nH]2)N(C(=O)[C@@H](NC(=O)OC)C(C)C)C1` [Compound 119], the EC50 is < 1 nM.

For `COC(=O)N[C@H](C(=O)N1CCC[C@H]1c1nc(-c2ccc(C#Cc3ccc4[nH]c([C@@H]5C[C@@H](O)CN5C(=O)[C@@H](NC(=O)OC)C(C)C)nc4c3)cc2)c[nH]1)C(C)C` [Compound 91], the EC50 was < 1 nM.

With `COC(=O)N[C@H](C(=O)N1CCC[C@H]1c1ncc(-c2ccc(C#Cc3ccc4nc([C@@H]5CCCN5C(=O)[C@@H](NC(=O)OC)C(C)(C)C)[nH]c4c3)cc2)[nH]1)C(C)C` [Compound 99], the EC50 is < 1 nM.

As to `COC(=O)N[C@@H](C(=O)N1CCC[C@H]1c1nc2ccc(C#Cc3ccc(-c4cnc([C@@H]5CCCN5C(=O)[C@H](NC(=O)OC)c5ccccc5)o4)cc3)cc2[nH]1)c1ccccc1` [Compound 103], the concentration for a half-maximal effect (EC50) is < 1 nM.

As for `COC(=O)N[C@@H](CC(C)C)C(=O)N1CCC[C@H]1c1nc2cc(-c3ccc(-c4ccc5[nH]c([C@@H]6CCCN6C(=O)[C@H](CC(C)C)NC(=O)OC)nc5c4)cc3)ccc2[nH]1` [Compound 25], the EC50 was < 1 nM.

As to `COC(=O)N[C@H](C(=O)N1CCC[C@H]1c1nc(-c2ccc3cc(-c4ccc5[nH]c([C@@H]6CCCN6C(=O)[C@@H](NC(=O)OC)[C@@H](C)OC)nc5c4)ccc3c2)c[nH]1)[C@@H](C)OC` [Compound 49], the EC50 was < 1 nM.

With `COC(=O)N[C@@H](C(=O)N1CCC[C@H]1c1nc(-c2ccc(C#Cc3ccc4[nH]c([C@@H]5CCCN5C(=O)[C@H](NC(=O)OC)c5ccccc5)nc4c3)cc2)c[nH]1)c1ccccc1` [Compound 36], the EC50 was < 1 nM.

`CCOC(=O)N[C@H](C(=O)N1CCC[C@H]1c1nc2cc(C#Cc3ccc(-c4c[nH]c([C@@H]5CCCN5C(=O)[C@@H](NC(=O)OC)C(C)C)n4)cc3)ccc2[nH]1)C(C)C` [Compound 63]: the EC50 was < 1 nM.

Consider `COC(=O)N[C@H](C(=O)N1CCC[C@H]1c1nc(C#Cc2ccc3cc(-c4ccc5[nH]c([C@@H]6CCCN6C(=O)[C@@H](NC(=O)OC)C(C)C)nc5c4)ccc3c2)c[nH]1)C(C)C` [Compound 57], for which the concentration for a half-maximal effect (EC50) was < 1 nM.

Take `COC(=O)N[C@H](C(=O)N1CCC[C@H]1c1nc2cc(-c3ccc4cc(-c5ccc6[nH]c([C@@H]7CCCN7C(=O)[C@@H](NC(=O)OC)C(C)C)nc6c5)ccc4c3)ccc2[nH]1)C(C)C` [Compound 20]: the concentration for a half-maximal effect (EC50) is < 1 nM.

As for `COC(=O)N[C@@H](C(=O)N1CCC[C@H]1c1cc2cc(C#Cc3ccc(-c4c[nH]c([C@@H]5CCCN5C(=O)[C@H](NC(=O)OC)c5ccccc5)n4)cc3)ccc2[nH]1)c1ccccc1` [Compound 116], the concentration for a half-maximal effect (EC50) is < 1 nM.

On to `COC(=O)N[C@H](C(=O)N1CCC[C@H]1c1ncc(-c2ccc(C#Cc3ccc4nc([C@@H]5CC[C@H](C)N5C(=O)[C@@H](NC(=O)OC)C(C)C)[nH]c4c3)cc2)[nH]1)C(C)C` [Compound 108], for which the EC50 was < 1 nM.

On to `COC(=O)N[C@H](C(=O)N1CCC[C@H]1c1ncc(-c2ccc(C#Cc3ccc4nc([C@@H]5C[C@H](F)CN5C(=O)[C@@H](NC(=O)OC)C(C)C)[nH]c4c3)cc2)[nH]1)C(C)C` [Compound 109], for which the concentration for a half-maximal effect (EC50) was < 1 nM.

Consider `COC(=O)N[C@H](C(=O)N1CCC[C@H]1c1nc(-c2ccc(-c3ccc(-c4ccc5[nH]c([C@@H]6[C@H]7CC[C@H](C7)N6C(=O)[C@@H](NC(=O)OC)C(C)C)nc5c4)cc3)cc2)c[nH]1)C(C)C` [Compound 124], for which the concentration giving a half-maximal response (EC50) is < 1 nM.

Take `C=C1C[C@@H](c2nc3cc(C#Cc4ccc(-c5c[nH]c([C@@H]6CCCN6C(=O)[C@@H](NC(=O)OC)C(C)C)n5)cc4)ccc3[nH]2)N(C(=O)[C@@H](NC(=O)OC)C(C)C)C1` [Compound 117]: the EC50 was < 1 nM.

For `COC(=O)N[C@@H](C)C(=O)N1CCC[C@H]1c1nc2cc(C#Cc3ccc(-c4c[nH]c([C@@H]5CCCN5C(=O)[C@@H](NC(=O)OC)C(C)C)n4)cc3)ccc2[nH]1` [Compound 76], the EC50 is < 1 nM.

Regarding `COC(=O)N[C@H](C(=O)N1CCC[C@H]1c1nc(-c2ccc(C#Cc3ccc4[nH]c([C@@H]5[C@H]6CC[C@H](C6)N5C(=O)[C@@H](NC(=O)OC)C(C)C)nc4c3)cc2)c[nH]1)C(C)C` [Compound 123], the EC50 is < 1 nM.

With `CC[C@H](C)[C@H](NC(=O)OC)C(=O)N1CCC[C@H]1c1ncc(-c2ccc(C#Cc3ccc4nc([C@@H]5CCCN5C(=O)[C@@H](NC(=O)OC)[C@@H](C)CC)[nH]c4c3)cc2)[nH]1` [Compound 96], the EC50 was < 1 nM.

As to `COC(=O)N[C@H](C(=O)N1CCC[C@H]1c1ncc(-c2ccc([C@@H]3C[C@H]3c3ccc4nc([C@@H]5CCCN5C(=O)[C@@H](NC(=O)OC)C(C)C)[nH]c4c3)cc2)[nH]1)C(C)C` [Compound 73], the EC50 is < 1 nM.

For `COC(=O)N[C@@H](C(=O)N1CCC[C@H]1c1ncc(C(=O)N[C@H]2CC[C@H](NC(=O)c3cnc([C@@H]4CCCN4C(=O)[C@H](NC(=O)OC)c4ccccc4)[nH]3)CC2)[nH]1)c1ccccc1` [Compound 120], the half-maximal effective concentration (EC50) is > 10 nM.
